pKi: −log10 of the molar value.

Results on one molecule are retold here after PMC5402262, “Synthesis and anti-obesity effects in vivo of Crotadihydrofuran C as a novel PPARγ antagonist from Crotalaria albida” (Scientific Reports, 2017).

The target of this assay is T1, PPARγ (Homo sapiens, UniProt P37231).
T1 construct: gene PPARG
T1 sequence (P37231 231-505 limits assumed): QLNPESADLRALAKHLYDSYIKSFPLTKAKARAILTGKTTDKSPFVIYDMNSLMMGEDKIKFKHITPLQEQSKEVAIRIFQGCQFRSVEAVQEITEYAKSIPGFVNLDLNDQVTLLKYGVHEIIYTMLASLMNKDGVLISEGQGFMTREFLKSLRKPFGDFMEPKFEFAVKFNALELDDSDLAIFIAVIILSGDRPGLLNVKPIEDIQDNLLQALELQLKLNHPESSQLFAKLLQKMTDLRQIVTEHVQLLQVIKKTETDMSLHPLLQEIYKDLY
Put plainly: LanthaScreen TR-FRET competitive binding assay. (In general: In TR-FRET formats the signal depends on donor and acceptor labels being close together.)

In the case of `C=C(C)[C@@H]1Cc2c(ccc(-c3coc4cc(O)ccc4c3=O)c2O)O1` [compound 17, 7, 2′-Dihydroxy-2′′ S-isopropenyl dihydrofuran [6′′, 7′′ : 3′, 4′]-isoflavone], the pKi is 5.80.

In general, pKi refers to the Ki on a negative log10 scale, so that one unit is a factor of ten.
